In patent publication US10280404B2, “Optimized HCV full-length infectious cell culture systems and applications thereof” (Hvidore Hospital, priority 2014, dated 2019):
Entries after “also recorded” stand apart in the source; their conditions may differ.

What was measured:
CD81-deficient S29 cells = assay: Single-cycle production assay: intra- and extracellular infectivity titers and core levels; format: cell-based, human; details: 48 hours after transfection
Method: Determination of intra- and extra-cellular HCV core levels and infectivity titers. For single-cycle production assays, an Huh7-derived CD-81 deficient cell line S29 was transfected with HCV RNA and intracellular HCV core levels were measured 4 and 48 hours post transfection. Additionally, intra- and extra-cellular HCV infectivity titers, as well as extracellular HCV core concentration, were determined 48 hours post transfection, as described previously. Briefly, for this assay, S29 cells were seeded in 6 well plates (˜3.5×10^5 cells/well) 24 hours prior to transfection. Plasmids of the different full-length clones were digested with XbaI (New England Biolabs, NEB) for linearization and treated with Mung Bean nuclease (NEB). HCV RNA was generated by in vitro transcription using T7 RNA polymerase (Promega). […] RNA was quantified using spectrophotometry (NanoDrop) and 10 μg of RNA was used for transfection with Lipofectamine 2000 (Invitrogen). […] Both, intra- and extra-cellular core antigen levels were determined by the Architect HCV Ag detection system (Abbott) following the manufacturer's instructions. […] Specific dilutions were analyzed in triplicate for HCV infectivity titers, and the FFU was counted using an ImmunoSpot Series 5 UV Analyzer with customized software (CTL Europe GmbH), and confirmed by manual count. […]

Huh7.5 cells = assay: HCV infectivity titers (FFU assay) of culture supernatant after RNA transfection or viral passage; format: cell-based, human
Method: Transfection and infection of Huh7.5 cells. The human hepatoma cell line Huh7.5 was maintained as described. Cells were plated in 6-well plates (˜3.5×10^5 cells/well) ˜24 hours before RNA transfection or viral infection, reaching 80-90% confluence at the time of inoculation. RNA transfection and viral infection were performed as previously described. The transfected or infected cultures were incubated for ˜16 hours, and sub-cultured every 2-3 days; culture supernatant was collected, filtered (0.45 μm), and stored at […] until analysis.
Analysis of HCV in cultured cells. […] Percentage of HCV antigen positive cells in the culture was determined with fluorescence microscopy. Culture supernatants were collected when 80% of cells were HCV antigen positive (peak infection) and HCV infectivity titers were determined by an FFU assay using a combination of C7-50 and 9E10, as previously described. […] The number of FFU was automatically counted with an ImmunoSpot Series 5 UV Analyzer with customized software (CTL Europe GmbH). HCV RNA titers in the culture supernatant were determined using real time RT-PCR TaqMan method. Core antigen levels were determined by the Architect HCV Ag detection system (Abbott) following manufacturer's instructions. Whole ORF sequences of passaged viruses were determined using procedures previously described for the sequencing of H77C and JFH1 genomes.

## HCV1_LSGF/S399F/TNm/4m: full-length HCV-1 recombinant with LSGF/S399F/TNm plus A970T/I1312V/C2419R/A2919T
CD81-deficient S29 cells
  extracellular infectivity titers: comparable to those of HCV1cc
Huh7.5 cells; after transfection of Huh7.5 cells, detection limit 10^2.4 FFU/ml
  day at which HCV infectivity titers were first detectable: 4 days
Huh7.5 cells; transfected Huh7.5 cells
  infectivity titers compared with HCV1cc: slightly lower than those of HCV1cc; also recorded: close to those of HCV1cc
